According to patent publication US8349791B2, “Polypeptides that bind membrane proteins” (The Trustees of the University of Pennsylvania, priority 2006, dated 2013):
Peptide text beside a SMILES is read from it.

Key:
Assay type in all cases: cell-based
α2 TM domain = biological target: T1, α2 TM domain (Homo sapiens, UniProt P17301); assay: DN-TOXCAT heterodimerization; details: coexpressed in bacterial membranes
T1 construct: expressed in transfected cells; host or cells: E. coli MM39, pDNToxR-Duet
T1 sequence (P17301 with tags, fused parts or gaps limits assumed): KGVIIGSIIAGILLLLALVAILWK
Description: (§1) Both the affinity and specificity of the membrane protein-binding peptides for their targets when coexpressed in bacterial membranes were assessed with a DN-“TOXCAT” assay (FIGS. 3a-3c). In TOXCAT, a TM sequence of interest is fused to a ToxR protein (TM-ToxR) that binds to the ctx promoter as a dimer, which induces expression of chloramphenicol acetyltransferase (CAT) (W. P. Russ, D. M. Engelman, Proc. Natl. Acad. Sci. U.S.A. 96, 863 (1999); D. Langosch, B. Brosig, H. Kolmar, H. J. Fritz, J. Mol. Biol. 263, 525 (1996)). In the DN assay, the TM1-ToxR fusion protein is coexpressed with a second fusion protein (TM2-ToxR*) containing a nonfunctional mutant of the ToxR domain. TM-driven dimerization leads to a ToxR-ToxR* dimer that is unable to bind the ctx promoter or to induce CAT synthesis (FIG. 3a). The resulting decrease in CAT activity can be used to monitor the formation of a heterodimeric TM complex. In principle, this assay could be accomplished by adding an exogenous synthetic peptide (D. Gerber, N. Sal-Man, Y. Shai, J. Mol. Biol. 339, 243 (2004)); however, it is difficult to assure that different peptides will be similarly inserted into the Escherichia coli inner membrane.
(§2) For testing the specificity of the designed membrane protein-binding polypeptide sequences against the integrin TM domains, the designed sequences (anti-αIIb and anti-αV) were cloned into MCS1 of the Duet vector and the integrin TM domains into MCS2 of the Duet vector. In this configuration, the integrin TMs compete for the homodimers formed by the polypeptide sequences, with the decrease in CAT signal proportional to the extent of heterodimerization between a given integrin TM and polypeptide sequence relative to the homodimerization of the polypeptide sequence.
(§3) Single MM39 colonies containing pDNToxR-Duet constructs from selective plates were chosen, inoculated in 5 mL of LB medium containing 100 μg/mL ampicillin and grown to an OD600 of 0.2 at 37° C. with vigorous shaking. IPTG was added to the medium at a final concentration of 0.1 mM IPTG and grown to an OD600 of 0.7. Purification, immunoblotting, CAT ELISA and MalE complementation assays are essentially as described previously. Li, R., Gorelik, R., Nanda, V., Law, P. B., Lear, J. D., DeGrado, W. F. and Bennett, J. S. J. Biol. Chem. 2004, 279, 26666-26673 (2004). For immunoblotting, anti-MBP (NEB) was used for pccKAN (TOXCAT) constructs, whereas anti-myc (Covance) and anti-HA (Covance) were used for pDNToxR-Duet constructs. CAT ELISA results are an average of 3 independent replicates.

β3 TM domain = biological target: T2, β3 TM domain (Homo sapiens, UniProt P05106); assay: DN-TOXCAT heterodimerization; details: coexpressed in bacterial membranes
T2 construct: expressed in transfected cells; host or cells: E. coli MM39, pDNToxR-Duet
T2 sequence (P05106 with tags, fused parts or gaps limits assumed): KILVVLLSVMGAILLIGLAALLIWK
Description: as §1, §2, §3

[1] = test system: gel-filtered human platelets; assay: Platelet aggregation, turbidometric
Description: Platelet-rich plasma, prepared from human blood anti-coagulated with 0.1 volume of 0.13 M sodium citrate, was gel-filtered on Sepharose 2B (Amersham Biosciences, Piscataway, N.J.) using an elution buffer containing 137 mM NaCl, 2.7 mM KCl, 1 mM MgCl2, 5.6 mM glucose, 0.35 mg/ml bovine serum albumin, 3.3 mM NaH2PO4, and 4 mM HEPES (pH=7.4), as previously described. Jordan P et al. Nature 411, 909-917 (2001). Turbidometric measurements of platelet aggregation were performed in a Chrono-Log Lumi-Dual Aggregometer. Aliquots (0.4 ml) of the gel-filtered platelet suspension were supplemented with 200 μg/ml human fibrinogen (Enzyme Research Labs., South Bend, Ind.) and 1 mM CaCl2 (final concentrations) prior to adding platelet agonists. The polypeptide was added from a DMSO solution such that the final concentration of DMSO was no greater than 0.5%. All controls also had 0.5% DMSO in the buffer.

αIIb TM domain = biological target: T3, αIIb TM domain (Homo sapiens, UniProt P08514); assay: DN-TOXCAT heterodimerization; details: coexpressed in bacterial membranes
T3 construct: expressed in transfected cells; host or cells: E. coli MM39, pDNToxR-Duet
T3 sequence (P08514 with tags, fused parts or gaps limits assumed): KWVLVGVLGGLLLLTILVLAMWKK
Description: Both the affinity and specificity of the membrane protein-binding peptides for their targets when coexpressed in bacterial membranes were assessed with a DN-“TOXCAT” assay (FIGS. 3a-3c). In TOXCAT, a TM sequence of interest is fused to a ToxR protein (TM-ToxR) that binds to the ctx promoter as a dimer, which induces expression of chloramphenicol acetyltransferase (CAT) (W. P. Russ, D. M. Engelman, Proc. Natl. Acad. Sci. U.S.A. 96, 863 (1999); D. Langosch, B. Brosig, H. Kolmar, H. J. Fritz, J. Mol. Biol. 263, 525 (1996)). In the DN assay, the TM1-ToxR fusion protein is coexpressed with a second fusion protein (TM2-ToxR*) containing a nonfunctional mutant of the ToxR domain. TM-driven dimerization leads to a ToxR-ToxR* dimer that is unable to bind the ctx promoter or to induce CAT synthesis (FIG. 3a). The resulting decrease in CAT activity can be used to monitor the formation of a heterodimeric TM complex. […]
Mutants were generated using the QuikChange site-directed mutagenesis kit (Stratagene). […] In order to quantify the effects of mutations to anti-αIIb on the change in heterodimerization relative to wild-type anti-αIIb, a disruption index (or % disruption of heterodimerization) was calculated from the data as follows: […]

With `CC[C@H](C)[C@H](NC(=O)[C@H](Cc1ccccc1)NC(=O)[C@H](Cc1ccccc1)NC(=O)[C@@H]1CCCN1C(=O)[C@H](CC(C)C)NC(=O)[C@H](CC(C)C)NC(=O)[C@H](CCSC)NC(=O)[C@@H](NC(=O)[C@H](Cc1ccc(O)cc1)NC(=O)[C@H](C)NC(=O)[C@H](CCCCN)NC(=O)[C@@H](N)CCCCN)C(C)C)C(=O)NCC(=O)N[C@@H](CC(C)C)C(=O)N[C@@H](CC(C)C)C(=O)N[C@@H](CC(C)C)C(=O)NCC(=O)N[C@@H](CC(C)C)C(=O)N[C@H](C(=O)N[C@@H](Cc1ccccc1)C(=O)NCC(=O)NCC(=O)N[C@@H](C)C(=O)N[C@@H](Cc1ccccc1)C(=O)N[C@@H](Cc1c[nH]c2ccccc12)C(=O)NCC(=O)N1CCC[C@H]1C(=O)N[C@@H](C)C(=O)N[C@@H](CCCNC(=N)N)C(=O)N[C@@H](Cc1c[nH]cn1)C(=O)N[C@@H](CC(C)C)C(=O)N[C@@H](CCCCN)C(=O)N[C@@H](CCCCN)C(N)=O)[C@@H](C)CC` [anti-αIIb] (H-KKAYVMLLPFFIGLLLGLIFGGAFWGPARHLKK-NH2; N-terminus assumed) the “interaction with α2 TM domain” value (α2 TM domain) was “failed to significantly interact”, the “interaction with β3 TM domain” value (β3 TM domain) was “failed to significantly interact” and the “induced aggregation in the presence of PGE1 and apyrase” value ([1]; 1 μM peptide, 2 μM PGE1, 10 units/ml apyrase) was “only minimally affected”. For the same compound, the “induced aggregation in the presence of EDTA, Arg-Gly-Asp-Ser or antibody A2A9” value ([1]; agents that directly target αIIbβ3) was “inhibited”, the “platelet aggregation response” value ([1]; gel-filtered human platelets) was “highly active” and the “CAT signal of anti-αIIb-ToxR with αIIb as the DN partner” value (αIIb TM domain) was “strongly attenuated”.
